Results on 5 compounds are retold here after patent US9650372B2, “Molecules having pesticidal utility, and intermediates, compositions, and processes, related thereto” (priority 2015, dated 2017).

SMILES strings stand for the structures.

A word on the mortality: it is the percentage killed.

The test system of assay [1] is Beet Armyworm (Spodoptera exigua, LAPHEG). The experiment in a line: Bioassay on Beet Armyworm (BAW), 128-well diet tray assay. The class given is in vivo. As to conditions: 168 h, 50 μg/cm^2 on artificial diet, second instar larvae, 25° C., five to seven days, average of eight wells, read-out: BAW % Control (or Mortality) rating. How it is done: (§1) Certain molecules disclosed in this document were tested against BAW and CL using procedures described in the following examples. In the reporting of the results, the “BAW & CL Rating Table” was used (See Table Section).
Bioassays on BAW were conducted using a 128-well diet tray assay. One to five second instar BAW larvae were placed in each well (3 mL) of the diet tray that had been previously filled with 1 mL of artificial diet to which 50 μg/cm^2 of the test molecule (dissolved in 50 μL of 90:10 acetone-water mixture) had been applied (to each of eight wells) and then allowed to dry. Trays were covered with a clear self-adhesive cover, vented to allow gas exchange, and held at 25° C., 14:10 light-dark for five to seven days. Percent mortality was recorded for the larvae in each well; activity in the eight wells was then averaged. The results are indicated in the table entitled “Table ABC: Biological Results” (See Table Section).

Assay [2] has as its system Cabbage Looper (Trichoplusia ni, TRIPNI). The experiment in a line: Bioassay on Cabbage Looper (CL), 128-well diet tray assay. The class given is in vivo. The settings on record: 168 h, 50 μg/cm^2 on artificial diet, second instar larvae, 25° C., five to seven days, average of eight wells, read-out: CL % Control (or Mortality) rating. Here is the method: as §1
Bioassays on CL were conducted using a 128-well diet tray assay. One to five second instar CL larvae were placed in each well (3 mL) of the diet tray that had been previously filled with 1 mL of artificial diet to which 50 μg/cm^2 of the test molecule (dissolved in 50 μL of 90:10 acetone-water mixture) had been applied (to each of eight wells) and then allowed to dry. Trays were covered with a clear self-adhesive cover, vented to allow gas exchange, and held at 25° C., 14:10 light-dark for five to seven days. Percent mortality was recorded for the larvae in each well; activity in the eight wells was then averaged. The results are indicated in the table entitled “Table ABC: Biological Results” (See Table Section).

Turning to `CC(C)c1ccccc1N1C(=O)CS/C1=N\C(=O)Nc1ccc(-c2ncn(CCCCC(F)(F)F)n2)cc1` [Molecule F4, (Z)-1-(3-(2-Isopropylphenyl)-4-oxothiazolidin-2-ylidene)-3-(4-(1-(5,5,5-trifluoropentyl)-1H-1,2,4-triazol-3-yl)phenyl)urea], the mortality at 50 µg/cm2 in assay [1] and in assay [2] was 50 to 100% in each case.

On to `Cc1ccc(C(C)C)c(N2C(=O)CS/C2=N\C(=O)Nc2ccc(-c3ncn(CCc4ccc(OC(F)(F)F)cc4)n3)cc2)c1` [Molecule F1, (Z)-1-(3-(2-isopropyl-5-methylphenyl)-4-oxothiazolidin-2-ylidene)-3-(4-(1-(4-(trifluoromethoxy)phenethyl)-1H-1,2,4-triazol-3-yl)phenyl)urea], for which the mortality at 50 µg/cm2 in assay [1] and in assay [2] was 50 to 100% in each case.

On to `CC(C)c1ccccc1N1C(=O)CS/C1=N\C(=O)Nc1ccc(-c2ncn(CCC(F)(F)C(F)(F)C(F)(F)F)n2)cc1` [Molecule F5, (Z)-1-(4-(1-(3,3,4,4,5,5,5-heptafluoropentyl)-1H-1,2,4-triazol-3-yl)phenyl)-3-(3-(2-isopropylphenyl)-4-oxothiazolidin-2-ylidene)urea], for which the mortality at 50 µg/cm2 in assay [1] and in assay [2] was 50 to 100% each time.

For the compound `CC(C)c1ccccc1N1C(=O)CS/C1=N\C(=O)Nc1ccc(-c2ncn(CCCC(F)(F)C(F)(F)F)n2)cc1` [Molecule F2, (Z)-1-(3-(2-Isopropylphenyl)-4-oxothiazolidin-2-ylidene)-3-(4-(1-(4,4,5,5,5-pentafluoropentyl)-1H-1,2,4-triazol-3-yl)phenyl)urea], the mortality at 50 µg/cm2 in assay [1] and in assay [2] was 50 to 100% throughout.

Turning to `CC(C)c1ccccc1N1C(=O)CS/C1=N\C(=O)Nc1ccc(-c2ncn(Cc3ccc(C(F)(F)F)cc3)n2)cc1` [Molecule F3, (Z)-1-(3-(2-Isopropylphenyl)-4-oxothiazolidin-2-ylidene)-3-(4-(1-(4-(trifluoromethyl)benzyl)-1H-1,2,4-triazol-3-yl)phenyl)urea], the mortality at 50 µg/cm2 in assay [1] fell in the range of 0 to 50%; in assay [2], 50 to 100%.
